Source: patent US6753171B2, “Site-specific cell perforation technique” (Center for Advanced Science and Technology Incubation, Ltd., priority 1998, dated 2004)

What was measured:
nerve cell line PC12 = experiment: Measurement of membrane resistance and membrane potential following light exposure (patch clamp); assay type: cell-based; settings: for change in cell membrane resistance/membrane potential following light exposure: 363 nm argon ion laser
Protocol: Since there is a need to monitor cellular level micro membrane damages, including the recovering process within seconds to a few minutes, the intermembrane potential of the cell membrane, or the ionic current passing through the cell membrane was measured using the patch clamp method, which is an electrophysiology experiment technique.
The photosensitizer BAT was dispersed in HEPES (25 mM,pH7.4) buffer.
Cells were incubated at room temperature within an electrophysiology experimental culture medium.
2H2O, 2.4 mM; MgSO4. 7H2O, 1.3 mM; glucose 10 mM, in which the pH was adjusted to […] by finally adding NaOH. To prevent any influence due to evaporation, the electrophysiology experiment culture medium was changed every 40 min at the latest by a pipette.
BAT was added to a final concentration of 49 μM. Exposed light quantity was in three stages, being 0.47 J/cm^2, 0.94 J/cm^2, and 1.57 J/cm^2.
The solution within the patch electrodes had the composition of KCl 132 mM, NaCl, 8 mM, MgCl2, 2 mM, HEPES 30 mM, Na2ATP 4 mM, GTP 0.3 mM, and EGTA 0.5 mM, in which the pH was adjusted to 7.3 by finally adding NaOH.
As the excitation power source, 50 mW, 363 nm argon ion laser standardly equipped within a confocal laser scanning microscope (CLSM) MRC-1000 UV (BIO-RAD laboratories) was used. 1/16th (¼^th to the direction of the X axis and Y axis, 117 μm×170 μm) of the full screen of the microscope is scanned with the above-described laser beams. Adjustments were done so that the whole image of the patched target cell came into this area. 50 mW laser beam is a 100% output. According to the scanning speed, the exposed duration was selected from 1/16, ¼, 1/32 sec. The light reduction by the lens was also utilized. When the zoom function was used, the light is scanned on a concentrated area smaller than the normal area, and therefore, the light quantity per unit area increases in proportion to the square of the zoom magnification. Since the excitation light has to pass through the plastic of the collagen-coated dish before reaching the cells, there is a necessity to consider light reduction.
Also, in the excitation light exposure, a TTL signal coupled with an electrophysiological recording is suitably transmitted to the excitation light source, to synchronize the exposure and electrical measurement.
At the start of the electrophysiological experiment, the cell membrane potential was maintained between −80 to −60 mV. The resistance of the patch electrode was 3˜4 MΩ, and the above described solution was filled into electrodes, and used.
As for the amplifier for cell membrane potential measurement, Axopatch 1-D (Axon Instruments) was used. The membrane resistance was calculated by the change in membrane potential when a 1 Hz rectangular hyperpolarizing current was passed through for 350 mili sec. […] The measured potential/current value was analyzed by Axoscope ver. 1.1 software (Axon Instruments).
Membrane resistance reflects membrane permeation inhibiting capacity, and membrane potential reflects the active ion transport capacity due to the functions of various intermembrane ion transportation systems and ion permeation inhibiting capacity.
A microinjector was connected to a micro glass pipette held by a micromanipulator, and BAT dispersed solution (BAT concentration was 2 mM, aqueous solvent) was filled into this micro glass pipette. The tip of this glass pipette was connected to a patch electrode and setup within 200 μm proximity of the cells in which the membrane potential/membrane resistance was to be measured. BAT dispersed solution was released by compressing the micro glass pipette to attach BAT onto the cell membrane of target cells.

[1] = Solubility of BAT in aqueous solution; assay type: physicochemical; settings: within acidic aqueous solutions (bivalent positive charge)
Excerpt: The thiophene oligomer having amino-methyl residue at the terminal, has a high solubility compared with other derivatives of the same type because of this amino-methyl residue. Solubility changes with the dissociation state of this amino-methyl residue. […] In aqueous solutions near a pH region suitable for the body (around 7.4), it has a feature of having both positively-charged monovalent BAT maintaining a high solubility, and non-charged BAT that agglutinates easily into a colloid state. Under this pH condition, by perfusing cells within a BAT-dispersed solution, this molecule can easily attach onto the cell surface. The hydrophilicity of BAT molecule is a novel feature that is not seen in either modified thiophene oligomers starting with α-terthienyl, or in other molecules designed as conductive high molecular monomers.

PC12 cells [2] = experiment: Microinjection treatment using site-specific membrane disruption: success rate of Lucifer Yellow injection; assay type: cell-based; settings: BAT 100 μM in injection solution, capillary approach speed 7 μm s^-1, n=30
Protocol: To determine the success or failure of microinjection treatment, Lucifer Yellow CH(LY), a water-soluble fluorescent dye, was added to the injection solution. After injection treatment, if a yellow fluorescence of LY origin was observed within the cell by a fluorescent microscope, then, the injection treatment was judged to have been successful. The variation of the success rate of cell injection was evaluated by the presence or absence of the photosensitizer BAT within the injection solution, and the presence or absence of a BAT excitation light exposure.
Normally, to make microinjection successful, a glass capillary having an opening with a diameter of a few hundred nanometers should be contacted with cells at high speed, to instantly penetrate/perforate the cell membrane or the nucleus membrane physically. […] The micromanipulator was attached to a fluorescence microscope (OLYMPUS OPTICAL, IX70 fluorescence microscope spec). Light of a 100 W […], which is the epi-illumination fluorescence light source equipped in the microscope, was treated by transmitting through an ultraviolet ray excitation filter set (OLYMPUS OPTICAL, U-MWU mirror unit), and the resulting ultraviolet light was used as the excitation source of the photosensitizer. […]

PC12 cells [3] = experiment: Cell survival rate after injection treatment (LY maintaining rate); assay type: cell-based
Protocol: The survival rate of cells to which microinjection treatment by a physical shear force was given, and that for photosensitizing microinjection treated cells were compared.
LY was injected into cells by microinjection. In dead cells in which the cell membrane had collapsed, LY rapidly diffuses, and staining is lost (Cell, 14, 741-759 (1978)). Therefore, LY maintaining rate of injection treated cells was used as an indicator of cell survival rate, and the survival rate after 3 to 6 days following injection treatment was compared.

With `NCc1ccc(-c2ccc(-c3ccc(CN)s3)s2)s1` [BAT, 5′5″-bis(aminomethyl)-2,2′:5′,2″-terthiophene] the “change in cell membrane resistance/membrane potential following light exposure” value (nerve cell line PC12; BAT 49 μM, light quantity 0.47 J/cm^2 (A)) was “a big change was not seen”, the “change in cell membrane resistance/membrane potential following light exposure” value (nerve cell line PC12; BAT 49 μM, light quantity 0.94 J/cm^2 (B)) was “a decrease in cell membrane resistance/depolarization of the membrane potential occurred” and the “change in cell membrane resistance/membrane potential following light exposure” value (nerve cell line PC12; BAT 49 μM, light quantity 1.57 J/cm^2 (C)) was “both disappeared”. The “time to disappearance of cell membrane resistance/membrane potential” value (nerve cell line PC12; BAT 49 μM, light quantity 1.57 J/cm^2 (C), after a few second lag period) was 8 s, the “cell membrane potential after laser exposure” value (nerve cell line PC12; BAT 2 mM dispersed solution sprayed onto target cells by micro glass pipette (Example 4)) was “depolarization of the cell membrane potential was observed” and the “change in membrane resistance when only the axon of the cell was exposed to laser beams” value (nerve cell line PC12; only the axon exposed) was “a similar change in membrane resistance was observed”. The solubility [1] was “dissolves easily”, the “success rate of the injection” value (PC12 cells [2]; 2 min ultraviolet exposure) was 80% and the “success rate of the injection” value (PC12 cells [2]; no light exposure) was 13%. The “cell survival rate (LY retention rate)” value (PC12 cells [3]; BAT+LY without UV, 3rd day following treatment) was 30% and the “cell survival rate (LY retention rate)” value (PC12 cells [3]; BAT+LY+UV photosensitizing injection, three to six days following injection treatment) was 90%.
